Measurements taken from patent publication US9873695B2, “Serine derivatives as ghrelin receptor agonists” (RaQualia Pharma Inc., priority 2014, dated 2018).

biological target: T1, human ghrelin receptor (Homo sapiens, UniProt Q92847); test: Ghrelin receptor agonistic activity induced Ca2+ influx in HEK293 cells stably expressing human ghrelin receptor; format: cell-based; conditions: Ca2+ influx (Fluo-4, FDSS6000), 11-point dose-response
T1 construct: expressed in transfected cells
Description: Measurement of the Ghrelin Receptor Agonistic Activity Induced Ca^2+ Influx in HEK293 Cells Stably Expressing Human Ghrelin Receptor
HEK293 cells stably expressing human ghrelin receptor were maintained in Dulbecco's modified Eagle medium (high glucose) supplemented with 10% fetal bovine serum, 100 units/ml penicillin, 100 microg/ml streptomycin and 500 microg/ml G418 at 37° C. in a humidified incubator with 5% CO2 and grown to 60-80% confluence. The day before the assay, the cells were seeded on poly-D-lysine coated 384-well plates (BD FALCON) at a density of 10,000 cells per well, and incubated overnight in incubator.
On the day of the assay, the cells were washed three times with assay buffer (Hanks' balanced salt solution with 20 mM HEPES, pH7.4), and were incubated for 1 hour at room temperature to load 0.5 microM Fluo-4 AM reagent (Invitrogen).
After removing Fluo-4, and washing with assay buffer, the cells were added with various concentrations of the compounds. The changes in intracellular calcium concentration were monitored with the fluorescence imaging plate reader, FDSS6000 (Hamamatsu Photonics).
The EC50 values for compounds of the present invention were determined from 11-point dose-response studies. Curves were generated using the average of duplicate wells for each data point. Finally, the EC50 values were calculated using the best-fit dose curve determined by XLfit (ID Business Solutions Ltd).

T1 sequence (Q92847 whole entry): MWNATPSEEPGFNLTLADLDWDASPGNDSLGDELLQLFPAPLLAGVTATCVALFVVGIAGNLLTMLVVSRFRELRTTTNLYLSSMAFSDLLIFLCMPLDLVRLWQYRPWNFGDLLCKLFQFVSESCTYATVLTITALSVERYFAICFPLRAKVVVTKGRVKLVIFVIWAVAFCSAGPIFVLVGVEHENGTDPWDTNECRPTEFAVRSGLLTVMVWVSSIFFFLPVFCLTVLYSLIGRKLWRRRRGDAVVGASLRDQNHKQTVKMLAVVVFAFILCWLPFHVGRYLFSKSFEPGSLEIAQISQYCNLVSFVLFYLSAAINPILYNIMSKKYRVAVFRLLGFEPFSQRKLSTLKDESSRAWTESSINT

EC50, < 10 nM:
CN1N=C2CCN(C(=O)[C@@H](COc3cc(C(F)(F)F)cc(C(F)(F)F)c3)NC(=O)C(C)(C)N)C[C@@]2(Cc2ccccc2)C1=O [Example 9, 2-amino-N—((R)-1-((R)-3a-benzyl-2-methyl-3-oxo-3a,4,6,7-tetrahydro-2H-pyrazolo[4,3-c]pyridin-5(3H)-yl)-3-(3,5-bis(trifluoromethyl)phenoxy)-1-oxopropan-2-yl)-2-methylpropanamide]
CN1N=C2CCN(C(=O)[C@@H](COc3ccccn3)NC(=O)C(C)(C)N)C[C@@]2(Cc2ccccc2)C1=O [Example 17, 2-amino-N—((R)-1-((R)-3a-benzyl-2-methyl-3-oxo-3a,4,6,7-tetrahydro-2H-pyrazolo[4,3-c]pyridin-5(3H)-yl)-1-oxo-3-(pyridin-2-yloxy)propan-2-yl)-2-methylpropanamide]
CN1N=C2CCN(C(=O)[C@@H](COc3cncc(F)c3)NC(=O)C(C)(C)N)C[C@@]2(Cc2ccccc2)C1=O [Example 18, 2-amino-N—((R)-1-((R)-3a-benzyl-2-methyl-3-oxo-3a,4,6,7-tetrahydro-2H-pyrazolo[4,3-c]pyridin-5(3H)-yl)-3-((5-fluoropyridin-3-yl)oxy)-1-oxopropan-2-yl)-2-methylpropanamide]
CN1N=C2CCN(C(=O)[C@@H](COc3ccc(C#N)cc3)NC(=O)C(C)(C)N)C[C@@]2(Cc2ccccc2)C1=O [Example 20, 2-amino-N—((R)-1-((R)-3a-benzyl-2-methyl-3-oxo-3a,4,6,7-tetrahydro-2H-pyrazolo[4,3-c]pyridin-5(3H)-yl)-3-(4-cyanophenoxy)-1-oxopropan-2-yl)-2-methylpropanamide]
